Reference: ChEMBL document CHEMBL1201862, “PubChem BioAssay data set” (2004)
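Where inhibition never reached the appropriate level, the endpoint shown equals the highest concentration tested. Otherwise, values were interpolated linearly from a five-concentration, 48-hour dose response in 96-well plates. The concentration for 50% growth inhibition is given as GI50.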 Calls of active or inactive are those of the source. No stated cut-off is given here; in the data, active = GI50 up to about 1.1 µM and inactive = higher.

Assays:
Assay in all cases: NCI anticancer screen, dose series, 48 h
A498 = test system: A498
ACHN = test system: ACHN
EKVX = test system: EKVX
M14 = test system: M14
MOLT-4 = test system: MOLT-4
NCI-H23 = test system: NCI-H23
NCI-H460 = test system: NCI-H460
NCI-H522 = test system: NCI-H522
OVCAR-8 = test system: OVCAR-8
RPMI-8226 = test system: RPMI-8226
RXF 393 = test system: RXF 393
SN12C = test system: SN12C
TK-10 = test system: TK-10
KM12 = test system: KM12
OVCAR-3 = test system: OVCAR-3
SR = test system: SR
UACC-257 = test system: UACC-257

Measured: GI50

CC(=O)OC1(C#N)CC2OC1C1C2N1C(=O)c1ccccc1 (stereo not drawn)
inactive: A498 > 100 µM | ACHN > 100 µM | EKVX > 100 µM | M14 > 100 µM | MOLT-4 > 100 µM | NCI-H23 > 100 µM | NCI-H460 > 100 µM | NCI-H522 > 100 µM | OVCAR-8 > 100 µM | RPMI-8226 > 100 µM | RXF 393 > 100 µM | SN12C > 100 µM | TK-10 > 100 µM

CC(C(=O)N1C(=O)N(C(=O)C(C)C(O)c2ccccc2)C2CCCCC21)C(O)c1ccccc1 (stereo not drawn)
inactive: ACHN 58.9 µM | EKVX 81.3 µM | KM12 37.1 µM | M14 79.8 µM | MOLT-4 26.2 µM | NCI-H23 > 100 µM | NCI-H460 49.1 µM | NCI-H522 46.8 µM | OVCAR-3 78.2 µM | OVCAR-8 88.3 µM | RPMI-8226 34 µM | RXF 393 66.1 µM | SN12C > 100 µM | SR 28.6 µM | TK-10 > 100 µM

Cn1ncc2c(c1=O)Nc1ccccc1S2(=O)=O
inactive: A498 > 100 µM | ACHN > 100 µM | EKVX > 100 µM | KM12 > 100 µM | M14 > 100 µM | MOLT-4 > 100 µM | NCI-H23 > 100 µM | NCI-H460 > 100 µM | NCI-H522 > 100 µM | OVCAR-3 > 100 µM | OVCAR-8 > 100 µM | RPMI-8226 53.8 µM | SN12C > 100 µM | SR 51.3 µM | TK-10 > 100 µM | UACC-257 > 100 µM

COC(=O)CCC(NC(=S)N/N=C(\C)c1ccc[nH]1)C(=O)OC (stereo not drawn)
inactive: A498 > 100 µM | ACHN > 100 µM | EKVX > 100 µM | KM12 > 100 µM | M14 > 100 µM | MOLT-4 > 100 µM | NCI-H23 > 100 µM | NCI-H460 > 100 µM | NCI-H522 > 100 µM | OVCAR-3 > 100 µM | OVCAR-8 > 100 µM | RXF 393 > 100 µM | SN12C > 100 µM | TK-10 > 100 µM | UACC-257 > 100 µM

O=C1C(c2ccc(Br)cc2)=[N+]([O-])c2ccccc21
inactive: A498 22.1 µM | ACHN 13.4 µM | EKVX 16 µM | KM12 14.8 µM | M14 16.3 µM | MOLT-4 4.79 µM | NCI-H23 15.8 µM | NCI-H460 16.9 µM | NCI-H522 2.45 µM | OVCAR-3 14.9 µM | OVCAR-8 10.2 µM | RPMI-8226 3.88 µM | RXF 393 16.9 µM | SN12C 15.5 µM | TK-10 15.9 µM | UACC-257 11.3 µM

Cc1ccc(C)c(NC(=O)C(=O)C2C(=O)N(c3ccccc3)N=C2N)c1 (stereo not drawn)
inactive: A498 > 100 µM | ACHN > 100 µM | EKVX > 100 µM | KM12 > 100 µM | M14 > 100 µM | MOLT-4 > 100 µM | NCI-H23 > 100 µM | NCI-H460 > 100 µM | NCI-H522 > 100 µM | OVCAR-3 > 100 µM | OVCAR-8 > 100 µM | RPMI-8226 > 100 µM | RXF 393 > 100 µM | SN12C > 100 µM | TK-10 > 100 µM | UACC-257 > 100 µM

COc1ccc(CCN2CCC(C#N)(c3ccc(OC)c(OC)c3)CC2)cc1OC
inactive: ACHN > 100 µM | EKVX > 100 µM | KM12 > 100 µM | M14 > 100 µM | MOLT-4 > 100 µM | NCI-H23 > 100 µM | NCI-H460 > 100 µM | NCI-H522 84.9 µM | OVCAR-3 > 100 µM | OVCAR-8 > 100 µM | RPMI-8226 > 100 µM | RXF 393 49.1 µM | SN12C > 100 µM | SR > 100 µM | TK-10 76.2 µM | UACC-257 > 100 µM

C=CCN(N=O)C(=O)NCCCCC(NC(C)=O)C(=O)NCc1ccccc1 (stereo not drawn)
inactive: A498 > 100 µM | ACHN > 100 µM | EKVX > 100 µM | KM12 > 100 µM | M14 > 100 µM | MOLT-4 > 100 µM | NCI-H23 > 100 µM | NCI-H460 > 100 µM | NCI-H522 > 100 µM | OVCAR-3 > 100 µM | OVCAR-8 > 100 µM | RPMI-8226 > 100 µM | RXF 393 > 100 µM | SN12C > 100 µM | TK-10 > 100 µM | UACC-257 > 100 µM

CNC(=S)OCCC(C)CCCC(C)C (stereo not drawn)
inactive: A498 16.3 µM | ACHN 18.8 µM | EKVX 17.1 µM | KM12 14.4 µM | M14 18.6 µM | MOLT-4 11.2 µM | NCI-H23 18.8 µM | NCI-H460 18.7 µM | OVCAR-8 17.3 µM | RPMI-8226 10.8 µM | RXF 393 16.2 µM | SN12C 16.3 µM | SR 14 µM | TK-10 12.8 µM | UACC-257 16.4 µM

O=C1CCC(=O)N1Sc1ccccc1
inactive: A498 > 100 µM | ACHN > 100 µM | EKVX > 100 µM | KM12 > 100 µM | M14 > 100 µM | MOLT-4 > 100 µM | NCI-H23 > 100 µM | NCI-H460 > 100 µM | NCI-H522 > 100 µM | OVCAR-3 > 100 µM | OVCAR-8 > 100 µM | RPMI-8226 > 100 µM | RXF 393 > 100 µM | SN12C > 100 µM | TK-10 > 100 µM | UACC-257 > 100 µM

COc1ccc(C2=C(Cl)c3cc(OC)c(OC)cc3C2OC)cc1OC (stereo not drawn)
inactive: A498 > 100 µM | ACHN > 100 µM | EKVX > 100 µM | KM12 > 100 µM | M14 > 100 µM | MOLT-4 > 100 µM | NCI-H23 > 100 µM | NCI-H460 > 100 µM | NCI-H522 3.25 µM | OVCAR-8 > 100 µM | RPMI-8226 23.8 µM | RXF 393 > 100 µM | SN12C > 100 µM | TK-10 > 100 µM | UACC-257 > 100 µM

Nc1nc2c(ncn2C2OC(CO)C(O)C2N)c(=O)[nH]1 (stereo not drawn)
inactive: A498 > 100 µM | ACHN > 100 µM | KM12 > 100 µM | M14 > 100 µM | MOLT-4 > 100 µM | NCI-H23 > 100 µM | NCI-H460 > 100 µM | NCI-H522 > 100 µM | OVCAR-3 > 100 µM | OVCAR-8 > 100 µM | SN12C > 100 µM | TK-10 > 100 µM | UACC-257 > 100 µM

c1ccc2c(c1)n1nnnc1c1nnnn21
inactive: A498 > 100 µM | ACHN > 100 µM | EKVX > 100 µM | KM12 > 100 µM | M14 > 100 µM | MOLT-4 > 100 µM | NCI-H23 > 100 µM | NCI-H460 > 100 µM | NCI-H522 12.6 µM | OVCAR-3 > 100 µM | OVCAR-8 92.7 µM | RPMI-8226 > 100 µM | RXF 393 87.3 µM | SN12C > 100 µM | TK-10 > 100 µM | UACC-257 > 100 µM
